# Experimental data as given in US20260297109A1, “COMPOUNDS AS SUMO ACTIVATING ENZYME INHIBITORS” (WIGEN BIOMEDICINE TECHNOLOGY (SHANGHAI) CO., LTD., priority 2022, published 2026).
# Target: T1, SAE (Homo sapiens, UniProt Q9UBT2)
# T1 construct: endogenous in cells; host or cells: HCT116
# T1 sequence (Q9UBT2 1-640): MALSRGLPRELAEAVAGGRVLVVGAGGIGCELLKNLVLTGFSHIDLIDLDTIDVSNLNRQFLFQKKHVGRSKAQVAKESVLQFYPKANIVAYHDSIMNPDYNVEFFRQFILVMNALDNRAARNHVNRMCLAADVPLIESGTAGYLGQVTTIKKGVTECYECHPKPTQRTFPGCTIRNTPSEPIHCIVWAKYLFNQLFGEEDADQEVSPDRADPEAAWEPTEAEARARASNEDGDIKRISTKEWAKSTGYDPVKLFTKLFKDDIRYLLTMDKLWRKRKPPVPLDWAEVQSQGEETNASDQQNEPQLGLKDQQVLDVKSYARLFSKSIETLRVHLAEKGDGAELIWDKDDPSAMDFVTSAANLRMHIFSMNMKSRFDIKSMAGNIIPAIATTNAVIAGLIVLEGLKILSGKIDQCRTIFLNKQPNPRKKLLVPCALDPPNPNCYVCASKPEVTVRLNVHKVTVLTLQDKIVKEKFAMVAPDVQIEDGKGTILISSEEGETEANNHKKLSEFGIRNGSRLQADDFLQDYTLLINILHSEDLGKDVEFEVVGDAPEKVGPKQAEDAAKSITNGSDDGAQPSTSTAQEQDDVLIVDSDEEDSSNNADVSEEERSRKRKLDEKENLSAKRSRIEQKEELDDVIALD
# T1 sequence (Q9UBE0 1-346): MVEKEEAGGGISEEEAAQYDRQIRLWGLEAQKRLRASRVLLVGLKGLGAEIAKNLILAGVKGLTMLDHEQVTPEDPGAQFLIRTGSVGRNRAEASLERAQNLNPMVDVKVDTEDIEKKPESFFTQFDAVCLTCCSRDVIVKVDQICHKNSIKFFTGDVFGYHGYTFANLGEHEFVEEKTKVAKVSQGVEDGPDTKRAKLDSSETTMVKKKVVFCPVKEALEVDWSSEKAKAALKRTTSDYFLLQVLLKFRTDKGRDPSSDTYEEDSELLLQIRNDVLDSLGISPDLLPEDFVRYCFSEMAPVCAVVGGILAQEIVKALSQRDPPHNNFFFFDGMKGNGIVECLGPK
# Test: SUMO IF: in vitro inhibitory activity assay against SAE in HCT116 cells (SUMO-2/3 immunofluorescence)
# Format: cell-based
# Conditions: class symbols, 6 h at 37° C.
# Method in brief: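 HCT116 cells were treated with compound for 6 h at 37 °C, then PFA-fixed, Triton-permeabilised and BSA-blocked. They were stained overnight at 4 °C with anti-SUMO-2/3 (18H8) rabbit mAb (1:400), then with FITC anti-rabbit IgG (1:300). Fluorescence versus DMSO gave inhibition rate and IC50.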
row,Structure (SMILES),IC50
1,NS(=O)(=O)OC[C@H]1[C@H](F)[C@@H](Nc2ncncc2C(=O)c2cc3c(s2)CCCC32NCC(=O)c3ccc(Cl)cc32)C[C@@H]1O (stereo partly drawn) [Compound 125],0.05 to 0.2 µM
2,NS(=O)(=O)OC[C@H]1[C@H](F)[C@@H](Nc2ncncc2C(=O)c2cc3c(s2)CC[C@]32OCCc3ccccc32)C[C@@H]1O [Compound 746],0.05 to 0.2 µM
3,NS(=O)(=O)OC[C@H]1[C@H](F)[C@@H](Nc2ncncc2C(=O)c2cc3c(s2)C(F)=C[C@@]32NCCc3ccc(F)cc32)C[C@@H]1O [Compound 619],> 0.2 µM
4,C=CCN1Cc2sc(C(=O)c3cncnc3N[C@H]3C[C@H](O)[C@@H](COS(N)(=O)=O)[C@@H]3F)cc2C2(C1)NCCc1ccc(Cl)cc12 (stereo partly drawn) [Compound 654],≤ 0.05 µM
5,Cc1cc2c(cc1Cl)[C@@]1(CCCc3sc(C(=O)c4cncnc4N[C@H]4C[C@H](O)[C@@H](COS(N)(=O)=O)[C@@H]4F)cc31)NCC2 [Compound 673],≤ 0.05 µM
6,NS(=O)(=O)CC[C@H]1[C@H](F)[C@@H](Nc2ncncc2C(=O)c2cc3c(s2)CCC[C@@]32NCCc3ccc(Cl)cc32)C[C@@H]1O [Compound 637],> 0.2 µM
7,Cc1sc(C(=O)c2cncnc2N[C@H]2C[C@H](O)[C@@H](COS(N)(=O)=O)[C@@H]2F)cc1C1NCC2(CC2)c2ccc(Cl)cc21 (stereo partly drawn) [Compound 265],0.05 to 0.2 µM
8,NS(=O)(=O)OC[C@H]1[C@H](F)[C@@H](Nc2ncncc2C(=O)c2cc3c(s2)CCC[C@]32NC(=O)Cc3ccc(Cl)cc32)C[C@@H]1O [Compound 629],> 0.2 µM
9,NS(=O)(=O)OC[C@H]1[C@H](F)[C@@H](Nc2ncncc2C(=O)c2cc3c(s2)CCCC32NCC3(CC3)c3ccc(Cl)cc32)C[C@@H]1O (stereo partly drawn) [Compound 123],0.05 to 0.2 µM
10,NS(=O)(=O)OC[C@H]1[C@H](F)[C@@H](Nc2ncncc2C(=O)c2cc3c(s2)CSCC32NCCc3ccc(Cl)nc32)C[C@@H]1O (stereo partly drawn) [Compound 609],0.05 to 0.2 µM
11,NS(=O)(=O)OC[C@H]1[C@H](F)[C@@H](Nc2ncncc2C(=O)c2cc3c(s2)OC[C@@]32NCCc3ccccc32)C[C@@H]1O [Compound 140],> 0.2 µM
12,NS(=O)(=O)OC[C@H]1[C@H](F)[C@@H](Nc2ncncc2C(=O)c2cc3c(s2)C(F)=C[C@]32NCCc3ccc(Cl)cc32)C[C@@H]1O [Compound 323],≤ 0.05 µM
13,NS(=O)(=O)OC[C@H]1[C@H](F)[C@@H](Nc2ncncc2C(=O)c2cc3c(s2)CCC32NCCc3cc(Cl)ncc32)C[C@@H]1O (stereo partly drawn) [Compound 161],0.05 to 0.2 µM
14,N#Cc1ccc2c(c1)[C@@]1(CCCc3sc(C(=O)c4cncnc4N[C@H]4C[C@H](O)[C@@H](COS(N)(=O)=O)[C@@H]4F)cc31)NCC2 [Compound 96],≤ 0.05 µM
15,CN1Cc2sc(C(=O)c3cncnc3N[C@H]3C[C@H](O)[C@@H](COS(N)(=O)=O)[C@@H]3F)cc2[C@]2(C1)OCCc1ccccc12 [Compound 719],0.05 to 0.2 µM
16,CCN1Cc2sc(C(=O)c3cncnc3N[C@H]3C[C@H](O)[C@@H](COS(N)(=O)=O)[C@@H]3F)cc2C2(C1)NCCc1ccc(Cl)cc12 (stereo partly drawn) [Compound 645],≤ 0.05 µM
17,NS(=O)(=O)OC[C@H]1[C@H](F)[C@@H](Nc2ncncc2C(=O)c2cc3c(s2)COCC32NCCc3cc(F)c(Cl)cc32)C[C@@H]1O (stereo partly drawn) [Compound 570],0.05 to 0.2 µM
18,CC1(C)Cc2ccc(Cl)cc2[C@@]2(CCCc3sc(C(=O)c4cncnc4N[C@H]4C[C@H](O)[C@@H](COS(N)(=O)=O)[C@@H]4F)cc32)N1 [Compound 1031],0.05 to 0.2 µM

row,Structure (SMILES),IC50
1,NS(=O)(=O)OC[C@H]1[C@H](F)[C@@H](Nc2ncncc2C(=O)c2cc3c(s2)CCC32NCCc3cc(F)c(Cl)cc32)C[C@@H]1O (stereo partly drawn) [Compound 153],≤ 0.05 µM
2,NS(=O)(=O)OC[C@H]1[C@H](F)[C@@H](Nc2ncncc2C(=O)c2cc3c(s2)CCC[C@@]32OCCc3ccc(F)cc32)C[C@@H]1O [Compound 712],> 0.2 µM
3,NS(=O)(=O)OC[C@H]1[C@H](F)[C@@H](Nc2ncncc2C(=O)c2cc3c(s2)CC=C[C@]32NCCc3ccc(Cl)cc32)C[C@@H]1O [Compound 681],≤ 0.05 µM
4,NS(=O)(=O)OC[C@H]1[C@H](F)[C@@H](Nc2ncncc2C(=O)c2cc3c(s2)CSC[C@@]32NCCc3ccc(Cl)nc32)C[C@@H]1O [Compound 610],> 0.2 µM
5,N#Cc1cc2c(cc1Cl)[C@@]1(CCCc3sc(C(=O)c4cncnc4N[C@H]4C[C@H](O)[C@@H](COS(N)(=O)=O)[C@@H]4F)cc31)NCC2 [Compound 674],≤ 0.05 µM
6,NS(=O)(=O)OC[C@H]1[C@H](F)[C@@H](Nc2ncncc2C(=O)c2cc3c(s2)CNC[C@]32NCCc3ccc(Cl)cc32)C[C@@H]1O [Compound 584],0.05 to 0.2 µM
7,Cc1cc2c(cc1Cl)C(c1cc(C(=O)c3cncnc3N[C@H]3C[C@H](O)[C@@H](COS(N)(=O)=O)[C@@H]3F)sc1C)NCC2 (stereo partly drawn) [Compound 248],0.05 to 0.2 µM
8,NS(=O)(=O)OC[C@H]1[C@H](F)[C@@H](Nc2ncncc2C(=O)c2cc3c(s2)CCCC32NCCc3cc(Cl)ncc32)C[C@@H]1O (stereo partly drawn) [Compound 119],0.05 to 0.2 µM
9,NS(=O)(=O)OC[C@H]1[C@H](F)[C@@H](Nc2ncncc2C(=O)c2nc3c(s2)CSC[C@@]32NCCc3ccc(Cl)cc32)C[C@@H]1O [Compound 592],> 0.2 µM
10,NS(=O)(=O)OC[C@H]1[C@H](F)[C@@H](Nc2ncncc2C(=O)c2cc3c(s2)CCCC32NCCc3ccc(Cl)nc32)C[C@@H]1O (stereo partly drawn) [Compound 600],≤ 0.05 µM
11,NS(=O)(=O)OC[C@H]1[C@H](F)[C@@H](Nc2ncncc2C(=O)c2cc3c(s2)CC[C@]32NCCc3cc(Cl)c(Cl)cc32)C[C@@H]1O [Compound 693],≤ 0.05 µM
12,NS(=O)(=O)OC[C@H]1[C@H](F)[C@@H](Nc2ncncc2C(=O)c2cc3c(s2)CN(C2CC2)CC32OCCc3ccc(Cl)cc32)C[C@@H]1O (stereo partly drawn) [Compound 741],0.05 to 0.2 µM
13,NS(=O)(=O)OC[C@H]1[C@H](F)[C@@H](Nc2ncncc2C(=O)c2cc3c(s2)OC[C@@]32NCCc3ccc(F)cc32)C[C@@H]1O [Compound 143],> 0.2 µM
14,NS(=O)(=O)OC[C@H]1[C@H](F)[C@@H](Nc2ncncc2C(=O)c2cc3c(s2)COC[C@@]32NCCc3ccccc32)C[C@@H]1O [Compound 98],> 0.2 µM
15,NS(=O)(=O)OC[C@H]1[C@H](F)[C@@H](Nc2ncncc2C(=O)c2cc3c(s2)CSC[C@@]32NCCc3ccccc32)C[C@@H]1O [Compound 295],> 0.2 µM
16,CC(C)N1Cc2sc(C(=O)c3cncnc3N[C@H]3C[C@H](O)[C@@H](COS(N)(=O)=O)[C@@H]3F)cc2[C@]2(C1)OCCc1ccc(Cl)cc12 [Compound 737],≤ 0.05 µM
17,NS(=O)(=O)OC[C@H]1[C@H](F)[C@@H](Nc2ncncc2C(=O)c2cc3c(s2)CSC[C@@]32NCCc3ccc(F)cc32)C[C@@H]1O [Compound 298],> 0.2 µM
18,Cc1sc(C(=O)c2cncnc2N[C@H]2C[C@H](O)[C@@H](CCS(N)(=O)=O)[C@@H]2F)cc1[C@H]1NCCc2ccc(Cl)cc21 [Compound 992],> 0.2 µM

# Same assay, conditions: numeric values, 6 h at 37° C.
row,Structure (SMILES),IC50
1,C=CCN1Cc2sc(C(=O)c3cncnc3N[C@H]3C[C@H](O)[C@@H](COS(N)(=O)=O)[C@@H]3F)cc2[C@@]2(C1)NCCc1ccc(Cl)cc12 [Compound 655],> 1 µM
2,NS(=O)(=O)OC[C@H]1[C@H](F)[C@@H](Nc2ncncc2C(=O)c2cc3c(s2)CN(C2CC2)C[C@@]32NCCc3ccc(Cl)cc32)C[C@@H]1O [Compound 580],> 1 µM
3,NS(=O)(=O)OC[C@H]1[C@H](F)[C@@H](Nc2ncncc2C(=O)c2cc3c(s2)CSC[C@]32NCCc3ccc(Cl)cc32)C[C@@H]1O [Compound 302],0.0215 µM
4,Cc1sc(C(=O)c2cncnc2N[C@H]2C[C@H](O)[C@@H](COS(N)(=O)=O)[C@@H]2F)cc1[C@H]1NCCc2ccc(F)cc21 [Compound 237],> 1 µM
5,Cc1sc(C(=O)c2cncnc2N[C@H]2C[C@H](O)[C@@H](COS(N)(=O)=O)[C@@H]2F)cc1[C@H]1NCCc2ccc(Cl)cc21 [Compound 234],> 1 µM
6,NS(=O)(=O)OC[C@H]1[C@H](F)[C@@H](Nc2ncncc2C(=O)c2cc3c(s2)C=C[C@@]32NCCc3ccc(Cl)cc32)C[C@@H]1O [Compound 343],> 1 µM
7,[2H]C1([2H])Cc2ccc(Cl)cc2[C@@]2(CCCc3sc(C(=O)c4cncnc4N[C@H]4C[C@H](O)[C@@H](COS(N)(=O)=O)[C@@H]4F)cc32)N1 [Compound 662],0.0235 µM
8,NS(=O)(=O)OC[C@H]1[C@H](F)[C@@H](Nc2ncncc2C(=O)c2cc3c(s2)CSC[C@@]32NCCc3ccc(Cl)cc32)C[C@@H]1O [Compound 301],> 1 µM
9,NS(=O)(=O)OC[C@H]1[C@H](F)[C@@H](Nc2ncncc2C(=O)c2cc3c(s2)CN(C2CC2)C[C@]32NCCc3ccc(Cl)cc32)C[C@@H]1O [Compound 581],0.0238 µM
